Results as given in patent US20070218460A1, “Method of Estimating Toxicity of Drug” (TAKEDA PHARMACEUTICAL COMPANY LIMITED, priority 2003, published 2007).
Read-outs that look alike come from different tables or passages of the source.

Legend:
[1] = test system: fabp1; assay: Real-time quantitative PCR of PLsis marker gene expression; format: cell-based, human; settings: HepG2 cells, 24 hr exposure, relative value, control group = 1.0, GAPDH internal standard, n=3
Procedure: (§1) Using RNeasy Mini Kit (QIAGEN), total RNA was purified from the cells, and cDNA was synthesized in a 100 μL system using TaqMan Reverse Transcription Reagents (PE Applied Biosystems).
(§2) As the primer for glyceraldehyde-3-phosphoric acid dehydrogenase (GAPDH) and VIC labeled probe, those attached to TaqMan GAPDH Control Reagents (PE Applied Biosystems) were used.
(§3) Using 100 μL of the reaction mixture containing 5 μL of cDNA (1×TaqMan Universal PCR Master Mix (PE Applied Biosystems), 200 nM forward primer, 200 nM reverse primer and 200 nM TaqMan probe), 40 cycles of (1 cycle=95° C., 15 sec; 60° C., 1 min) PCR were performed. PCR and fluorescence detection were performed using ABI PRISM Sequence Detector 7000 (PE Applied Biosystems). As the internal standard, GAPDH was used to amend the measurement values. For the determination of significant difference, t-test was used (n=3).
(§4) For each test compound, the expression variation rate of 12 genes each relative to the control group was determined.

[2] = test system: kiaa1001; assay: as above; format: cell-based, human; settings: HepG2 cells, 24 hr exposure, relative value, control group = 1.0, GAPDH internal standard, n=3
Procedure: as §1, §2, §3, §4

[3] = test system: nr0b2; assay: as above; format: cell-based, human; settings: HepG2 cells, 24 hr exposure, relative value, control group = 1.0, GAPDH internal standard, n=3
Procedure: as §1, §2, §3, §4

[4] = test system: asah1; assay: as above; format: cell-based, human; settings: HepG2 cells, 24 hr exposure, relative value, control group = 1.0, GAPDH internal standard, n=3
Procedure: as §1, §2, §3, §4

[5] = test system: flj22362; assay: as above; format: cell-based, human; settings: HepG2 cells, 24 hr exposure, relative value, control group = 1.0, GAPDH internal standard, n=3
Procedure: as §1, §2, §3, §4

[6] = test system: hpn; assay: as above; format: cell-based, human; settings: HepG2 cells, 24 hr exposure, relative value, control group = 1.0, GAPDH internal standard, n=3
Procedure: as §1, §2, §3, §4

[7] = test system: depp; assay: as above; format: cell-based, human; settings: HepG2 cells, 24 hr exposure, relative value, control group = 1.0, GAPDH internal standard, n=3
Procedure: as §1, §2, §3, §4

[8] = test system: mgc4171; assay: as above; format: cell-based, human; settings: HepG2 cells, 24 hr exposure, relative value, control group = 1.0, GAPDH internal standard, n=3
Procedure: as §1, §2, §3, §4

[9] = test system: tagln; assay: as above; format: cell-based, human; settings: HepG2 cells, 24 hr exposure, relative value, control group = 1.0, GAPDH internal standard, n=3
Procedure: as §1, §2, §3, §4

[10] = test system: slc2a3; assay: as above; format: cell-based, human; settings: HepG2 cells, 24 hr exposure, relative value, control group = 1.0, GAPDH internal standard, n=3
Procedure: as §1, §2, §3, §4

[11] = test system: lss; assay: as above; format: cell-based, human; settings: HepG2 cells, 24 hr exposure, relative value, control group = 1.0, GAPDH internal standard, n=3
Procedure: as §1, §2, §3, §4

[12] = test system: serpina3; assay: as above; format: cell-based, human; settings: HepG2 cells, 24 hr exposure, relative value, control group = 1.0, GAPDH internal standard, n=3
Procedure: as §1, §2, §3, §4

[13] = test system: HepG2 cells; assay: Electron-microscopic examination of PLsis induction potential (myelin-like structure)
Source text: Using 30 kinds of the following commercially available drugs as test compounds, the level of PLsis induction potential was examined with the emergence of an intracellular myelin-like structure or a structure having a high electron density, which is an early image thereof, as an index by electronmicroscopic observation.
HepG2 cells (purchased from ATCC) were exposed to the test compound by a conventional method. HepG2 cells used were of the cell growth phase. The attached HepG2 cells were washed twice with. Dulbecco's phosphate buffered saline (calcium and magnesium salt free; PBS(−))(Dainippon Pharmaceutical Co., Ltd.) containing 0.05 w/v % EDTA, detached with a cell dissociation solution of 0.25 vol % trypsin-1 mmol/L EDTA (Gibco BRL) diluted 2-fold with PBS(−), centrifuged to remove the supernatant, and adjusted to a concentration of 2×10^5 cells/250 μL with a culture medium [Dulbecco's modified Eagle medium (DMEM)(Gibco BRL) supplemented with 50 U/mL penicillin (Gibco BRL)-[…] streptomycin (Gibco BRL) and 5 vol % FBS (Bio whittaker)]. DMSO alone or a culture medium containing the above-mentioned test compound in DMSO solution was dispensed to a well by 250 μL, the above-mentioned cell suspension (250 μL) was added, and cultured in a CO2 incubator (7100; Napco) under an atmosphere of 5% CO2—95% air at 37° C.
After culture for 72 hr, the culture medium was removed, and the cells were fixed with 1 w/v % glutaraldehyde solution. After fixing with 2 w/v % osmic acid for 2 hr by a conventional method and dehydrating with an alcohol series, the cells were embedded in a resin (Quetol 812). Ultrathin slices were prepared and, after electron staining, observed with an electron microscope (H-300; Hitachi) and photographed in 3 or more pictures per each sample (magnification ×5000). The processing after post-fixation was performed by Applied Medical Research.

[14] = test system: HepG2 cells; assay: Highest concentration at which cells were viable after 72 hr exposure; format: cell-based, human

| SMILES | expression variation rate fabp1 [1] | expression variation rate kiaa1001 [2] | expression variation rate nr0b2 [3] | expression variation rate asah1 [4] | expression variation rate flj22362 [5] | expression variation rate hpn [6] | expression variation rate depp [7] | expression variation rate mgc4171 [8] | expression variation rate tagln [9] | expression variation rate slc2a3 [10] | expression variation rate lss [11] | expression variation rate serpina3 [12] | frequency of appearance of myelin-like structure [13] | addition concentration (highest concentration at which cells survived after 72 hr of culture) [14] | frequency of appearance of myelin-like structure ([13]; HepG2 cells, 72 hr culture, electron microscopy, blind test n=4, addition concentration 8.3 or 25 μmol/L) | frequency of appearance of myelin-like structure ([13]; HepG2 cells, 72 hr, electromicroscopic test, class symbols in head of Table 2) |
| --- | --- | --- | --- | --- | --- | --- | --- | --- | --- | --- | --- | --- | --- | --- | --- | --- |
| CC[C@H]1OC(=O)[C@H](C)[C@@H](O[C@H]2C[C@@](C)(OC)[C@@H](O)[C@H](C)O2)[C@H](C)[C@@H](O[C@@H]2O[C@H](C)C[C@H](N(C)C)[C@H]2O)[C@](C)(OC)C[C@@H](C)C(=O)[C@H](C)[C@@H](O)[C@]1(C)O [clarithromycin] | 0.91 | 1.48 | 0.78 | 1.55 | 1.00 | 0.96 | 0.93 | 1.18 | 0.86 | 0.86 | 0.65 | 1.39 | − | 25 µmol/L |  |  |
| CN1CCN(C2=Nc3cc(Cl)ccc3Nc3ccccc32)CC1 [clozapine] | 3.89 | 3.34 | 1.97 |  | 1.92 | 2.35 | 5.15 | 1.88 | 0.24 | 0.24 |  | 1.96 | ++ | 25 µmol/L |  |  |
| CN(C)CCCN1c2ccccc2CCc2ccccc21 [imipramine] | 2.45 | 2.11 | 3.41 | 4.52 | 1.80 | 2.32 | 3.36 | 1.81 | 0.15 | 0.15 | 2.69 | 2.12 |  | 25 µmol/L |  |  |
| CCOC(=O)N1CCC(=C2c3ccc(Cl)cc3CCc3cccnc32)CC1 [loratadine] |  |  |  |  |  |  |  |  |  |  |  |  |  | 8.3 µmol/L | mild | + |
| N=C(N)c1ccc(OCCCCCOc2ccc(C(=N)N)cc2)cc1 [pentamidine] | 0.15 | 1.82 | 1.83 | 0.93 | 2.49 | 2.50 | 2.88 | 0.73 | 0.68 | 0.50 | 0.52 | 2.12 |  | 8.3 µmol/L |  |  |
| C=C[C@H]1C[N@@]2CC[C@H]1C[C@@H]2[C@@H](O)c1ccnc2ccc(OC)cc12 [quinidine] | 1.38 |  |  | 1.43 |  |  |  |  | 0.63 | 0.37 |  |  | − | 25 µmol/L |  |  |
